Results reported in patent publication US7268125B2 (Azevan Pharmaceuticals, Inc., priority 2001, dated 2007).

What was measured:
vasopressin V1a receptor = target: T1, vasopressin V1a receptor (Homo sapiens, UniProt P37288); test: Inhibition of phosphatidylinositol turnover; assay type: cell-based; conditions: hV1a cells, [3H]inositol phosphates, versus 10 nM AVP
T1 construct: host or cells: CHO cells
Source text: Inhibition of Phosphatidylinositol Turnover.
The physiological effects of vasopressin are mediated through specific G-protein coupled receptors. The vasopressin V1a receptor is coupled to the Gq/G11 family of G proteins and mediates phosphatidylinositol turnover. The agonist or antagonist character of the compounds of the invention may be determined by their ability to inhibit vasopressin-mediated turnover of phosphatidylinositol by the procedure described in the following paragraphs.
Three days prior to the assay, near-confluent cultures of hV1a cells were dissociated and seeded in 6-well tissue culture plates, about 100 wells being seeded from each 75 cm^2 flask (equivalent to 12:1 split ratio). Each well contained 1 mL of growth medium with 2 μCi of [^3H]myo-inositol (American Radiolabeled Chemicals, St. Louis, Mo., USA).
All assays were in triplicate except for basal and 10 nM AVP (both n=6). AVP ((arginine vasopressin), Peninsula Labs, Belmont, Calif., USA (#8103)) was dissolved in 0.1N acetic acid. Test agents were dissolved in DMSO and diluted in DMSO to 200 times the final test concentration. […] The order of incubations was randomized. Incubations were initiated by removing the prelabeling medium, washing the monolayer once with 1 mL of 0.9% NaCl, and transferring the contents of the assay tubes to corresponding wells. The plates were incubated for 1 hour at 37° C. Incubations were terminated by removing the incubation medium and adding 500 μL of ice cold 0.5% (w/v) trichloroacetic acid and allowing the wells to stand for 15 min.
BioRad Poly-Prep Econo-Columns were packed with 0.3 mL of AG 1 X-8 100-200 formate form resin. Resin was mixed 1:1 with water and 0.6 mL added to each column. Columns were then washed with 10 mL water. Scintillation vials (20 mL) were placed under each column. For each well, the contents were transferred to a minicolumn, after which the well was washed with 0.5 mL distilled water, which was also added to the minicolumn. The columns were then washed twice with 5 mL of 5 mM myo-inositol to elute free inositol. Aliquots (1 mL) were transferred to 20 mL scintillation vials and 10 mL of Beckman Ready Protein Plus added. After the myo-inositol wash was complete, empty scintillation vials were placed under the columns, and [^3H]inositol phosphates were eluted with three additions of 1 mL 0.5 M ammonium formate containing 0.1 N formic acid. Elution conditions were optimized to recover inositol mono-, bis-, and trisphosphates, without eluting the more metabolically inert tetrakis-, pentakis-, and hexakis-phosphates. […] Inositol lipids were measured by adding 1 mL of 2% sodium dodecyl sulfate (SDS) to each well, allowing the wells to stand for at least 30 min., and transferring the solution to 20 mL scintillation vials, to which 10 mL Beckman Ready Protein Plus scintillation fluid was then added. Samples were counted in a Beckman LS 3801 liquid scintillation counter for 10 min. Total inositol incorporation for each well was calculated as the sum of free inositol, inositol phosphates, and inositol lipids.
Concentration-response curves for AVP and concentration-inhibition curves for test agents versus 10 nM AVP were analyzed by nonlinear least-squares curve-fitting to a 4-parameter logistic function. […] The curve-fitting was weighted under the assumption that the standard deviation was proportional to dpm of radioactivity. […] Inositol phosphates were expressed as dpm per 10^6 dpm of total inositol incorporation. […]

human V1a receptor = target: T2, human V1a receptor (Homo sapiens, UniProt P37288); test: Human vasopressin V1a receptor binding assay; conditions: hV1a cell line (CHO), competition with 1 nM 3H-AVP, 45 minutes at 37° C.; read-out: V1a BINDING AFFINITY (IC50 (nM))
T2 construct: host or cells: CHO cells
T2 sequence (P37288 whole entry): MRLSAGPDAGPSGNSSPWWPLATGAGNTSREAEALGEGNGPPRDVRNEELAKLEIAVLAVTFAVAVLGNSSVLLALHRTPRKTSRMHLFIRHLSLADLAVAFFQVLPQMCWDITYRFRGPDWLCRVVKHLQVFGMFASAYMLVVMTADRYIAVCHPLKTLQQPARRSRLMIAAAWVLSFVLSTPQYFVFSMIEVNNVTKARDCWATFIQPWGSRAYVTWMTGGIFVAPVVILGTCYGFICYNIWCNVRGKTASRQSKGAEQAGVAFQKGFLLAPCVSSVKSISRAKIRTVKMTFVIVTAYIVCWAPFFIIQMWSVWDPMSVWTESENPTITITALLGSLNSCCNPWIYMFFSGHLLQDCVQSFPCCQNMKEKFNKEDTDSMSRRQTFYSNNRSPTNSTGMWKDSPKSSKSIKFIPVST
Method: Human Vasopression V1a Receptor Binding Assay.
A cell line expressing the human V1a receptor in CHO cells (henceforth referred to as the hV1a cell line) was obtained from Dr. Michael Brownstein, NIMH, Bethesda, Md., USA. The hV1a cDNA sequence is described by Thibonnier et al., Journal of Biological Chemistry, 269, 3304-3310 (1994), and the expression method was the same as described by Morel et al. (1992). The hV1a cell line was grown in alpha-MEM with 10% fetal bovine serum and 250 ug/ml G418 (Gibco, Grand Island, N.Y., USA). For competitive binding assay, hV1a cells were plated into 6-well culture plate at 1:10 dilution from a confluency flask, and maintained in culture for at least two days. Culture medium was then removed, cells were washed with 2 ml binding buffer (25 mM Hepes, 0.25% BSA, 1×DMEM, PH=7.0). To each well, 990 μl binding buffer containing 1 nM 3H-AVP was added, and followed by 10 μl series diluted Example compounds dissolved in DMSO. […] 100 nM cold AVP (Sigma) was used to assess non-specific binding. Cells were incubated for 45 minutes at 37° C., assay mixture was removed and each well was washed three times with PBS (pH=7.4). 1 ml 2% SDS was added per well and plates were let sit for 30 minutes. The whole content in a well was transferred to a scintillation vial. Each well was rinsed with 0.5 ml PBS which was then added to the corresponding vial. Scintillation fluid (Ecoscint, National Diagnostics, Atlanta, Ga.) was then added at 3 ml per vial. Samples were counted in a liquid scintillation counter (Beckman LS3801). IC50 values were calculated by Prism Curve fitting software.
All of the alkanedioic esters and amides exemplified in the foregoing examples were tested in this assay described of Example 201.

T1 sequence (P37288 whole entry): as above

SMILES | agonist or antagonist character by inhibition of vasopressin-mediated turnover of phosphatidylinositol (vasopressin V1a receptor) | IC50 (human V1a receptor) [nM]
O=C(NCc1cccc(C(F)(F)F)c1)C(CCC(=O)N1CCC(N2CCCCC2)CC1)N1C(=O)C(N2C(=O)OCC2c2ccccc2)C1C=Cc1ccccc1 (single isomer, unassigned) [Example 88] | vasopressin V1a antagonists | –
O=C(NCc1cccc(C(F)(F)F)c1)[C@@H](CC(=O)N1CCC(N2CCCCC2)CC1)N1C(=O)[C@@H](N2C(=O)OC[C@@H]2c2ccccc2)[C@H]1/C=C/c1ccccc1 [Example 133] | vasopressin V1a antagonists | 2.43
O=C(NCc1cccc(C(F)(F)F)c1)[C@H](CC(=O)N1CCC(N2CCCCC2)CC1)N1C(=O)[C@@H](N2C(=O)OC[C@@H]2c2ccccc2)[C@H]1/C=C/c1ccccc1 [Example 44] | vasopressin V1a antagonists | 3.1
O=C(NCc1cccc(C(F)(F)F)c1)[C@H](CCC(=O)N1CCN(CCc2ccccc2)CC1)N1C(=O)[C@@H](N2C(=O)OC[C@@H]2c2ccccc2)[C@H]1C=Cc1ccccc1 (single isomer, unassigned) [Example 35] | vasopressin V1a antagonists | 1.9
O=C(NCc1cccc(C(F)(F)F)c1)C(CCC(=O)N1CCN(C2CCCCC2)CC1)N1C(=O)C(N2C(=O)OCC2c2ccccc2)C1C=Cc1ccccc1 (single isomer, unassigned) [Example 110] | vasopressin V1a antagonists | 0.49
CN1CCC(N2CCN(C(=O)CC[C@@H](C(=O)NCc3cccc(C(F)(F)F)c3)N3C(=O)[C@@H](N4C(=O)OC[C@@H]4c4ccccc4)[C@H]3/C=C/c3ccccc3)CC2)CC1 [Example 102] | – | < 100
